Patent publication US20250275993A1, “GLYCOSYLATION INHIBITORS AS THERAPEUTICS FOR STROKE” (The Regents of the University of California, priority 2022, published 2025)

Experiments:
[1] = system: BCEC confluent monolayers; assay: BCEC scratch assay; type: cell-based, bovine; conditions: 40 μM ManN or 50 ng/ml of VEGF; after 48 hours
Description: BCECs (passage 6-10) and HUVEC (passage 6-8) were used in this assay. Cells were grown until about 80% confluency in 6-well plates, washed twice with PBS and then starved in serum-free DMEM (low Glucose, Hyclone) for 5 hrs before making a “scratch” using 1 ml tip. Cell monolayers were briefly washed once with serum-free media, followed by various treatments in media containing 1% FBS. 48 hrs later, the assay was stopped by adding 2 ml 4% paraformaldehyde. 20 min later, fixed cells were stained with 1 ml Crystal Violet (Sigma). Plates were washed gently under the running tap water and air-dried before taking pictures. Images were acquired by ZEISS Discovery […] microscopy equipped with […] camera. Quantification of wound closure was done using AxioVision LE Rel.4.4 software. Six images were taken for each sample and six measurements (in pixel) were made on each image using AxioVision LE Re1.4.4 software.

[2] = system: VEGFR2; assay: VEGFR2 western blot in BCECs (molecular mass, phosphorylation, PNGase F); type: cell-based, bovine; conditions: VEGF at 5 ng/ml for 24 hours
Description: Glycerol-free PNGase F was obtained from New England Biolabs (Ipswich, MA). Briefly, BCECs were lysed with NP-40 containing proteinase inhibitors (Thermo Scientific, Waltham, MA). Lysates were cleared at 4° C. at 5000 g for 25 mins. Total protein content was measured using Pierce BCA protein assay kit (Thermo Scientific). 20 mg of protein was mixed with 10× denaturing buffer and H2O to a total volume of […]. Glycoproteins were denatured at 100° C. for 10 mins, followed by adding Glycobuffer and PNGase F. The reaction was carried out at 37° C. for 2 hr.
Cells were allowed to reach-80% confluency in 12-well plates. […] At various time points, plates were taken out of the incubator and kept on ice. […] Lysates were collected and mixed with 4× Bolt LDS Sample Buffer (Novex, Carlsbad, CA) in the presence of Halt protease inhibitors and phosphatase inhibitor cocktail (ThermoFisher scientific, #NP0007). […] HUVECs (passage 6-8) were plated in EBM-2 basal medium (Lonza) with 0.2% FBS. Following overnight culture, cells were serum-starved in EBM-2 medium for 4 hrs prior to treatment with 50 ng/ml of VEGF165 or vehicle controls for various lengths. Equal amounts of protein lysates were analyzed by SDS-PAGE and blotted with the indicated antibodies. Proteins were transferred using Tris-Glycine buffer with 20% Methanol (Proteonomics grade) (Apex BioResearch Products). Membranes were first incubated with 5% milk in TBST, pH 7.6 (TEKnova, Hollister, CA), followed by blotting with primary and secondary antibodies. ECL anti-rabbit IgG, horseradish peroxidase linked whole antibody from donkey or sheep anti-mouse were obtained from GE Healthcare (UK limited). SuperSignal West Dura Extended Duration substrate was from ThermoFisher Scientific. In some cases, the same PVDF membranes were stripped by 8-min incubation in the Restore Plus Western Blot Stripping Buffer (ThermoFisher Scientific) to show total specific protein expression, followed by second stripping for (3-actin expression.

[3] = system: skin wound; assay: Skin wound healing model (splinted wound); type: in vivo, mouse; conditions: topical 20 μg daily; mice; PBS group 81.5%
From the text: The model has been previously described. Briefly, C57BL/6 female mice (8-10 weeks old) were obtained from Jackson labs (Sacramento, CA). A fresh, full-thickness punch wound (4 mm diameter) using a punch (Acu Punch, Acuderm inc. Ft. Lauderdale, FL) splinted with a sterile neoprene ring (6-mm outer diameter and 4-mm inner diameter), fastened with 5-6 sutures (4-0 nylon) under the influence of Isoflurane was created on the back of the animal in a Class II Biological Safety Cabinet. For all surgical procedures, sterile technique was followed. Buprenorphine was given subcutaneously prior to awakening from anesthesia for anticipated pain. Mice were monitored until fully awake and were housed individually to minimize damage/biting/fighting to the surgical site. […] Treatment agents were prepared in PBS, sterile-filtered and 25 μl solution was applied daily directly to a wound bed for the first 4-5 days under the influence of Isoflurane, followed by daily observation. Wound closure was monitored by regular imaging and the wound area was quantified using ImageJ (National Institutes of Health, Bethesda, MD, USA). […] Epithelial gap was measured histomorphometrically using AxioVision LE Rel.4.4 software. […] Small vessels stained positive for CD31 were counted microscopically on 10 fields (20×) taken around the wound.

For VEGF, the “closure of the scratched area vs control” value [1] was “significantly accelerated BCEC migration and/or proliferation”, the “effect of VEGF alone on VEGFR2 molecular mass” value [2] was “no effect on molecular mass” and the “average closure of the wound on day 4” value [3] was 66.9%.
